Results on nine compounds are retold here after PubChem BioAssay (NCI).

The structures appear in SMILES notation.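 Cultured in 96-well plates, cells were exposed to test compound for 48 hours across five concentrations. At the GI50, growth is halved. At the TGI there is no net growth.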

Some test systems named below: SN12C renal; T-47D breast; SF-268 CNS; SR leukemia; SNB-19 CNS; HL-60(TB) leukemia; UACC-62 melanoma; NCI/ADR-RES ovarian; HT29 colon; LOX IMVI melanoma.
Holding throughout (test): NCI anticancer screen, dose series, 48 h

As for `O=C(NC(=O)c1c(Cl)nc2sccn12)Nc1ccc(Cl)cc1`, the TGI with SN12C renal is over 100 µM; in the test with T-47D breast, over 100 µM; in the test with SF-268 CNS, 53.9 µM; in the test with SR leukemia it was over 100 µM; with SNB-19 CNS, 74.1 µM; with HL-60(TB) leukemia it was over 100 µM. In addition, the TGI with UACC-62 melanoma, in the test on NCI/ADR-RES ovarian, with HT29 colon and in the test on LOX IMVI melanoma was over 100 µM throughout.
For the compound `Cn1cc(C2=C(c3c[nH]c4ccccc34)C(=O)NC2=O)c2ccccc21`, the GI50 with SN12C renal is 1320 nM; in the test with T-47D breast it was 0.846 µM; in the test with SF-268 CNS, 1100 nM; in the test on SR leukemia, 233 nM; with SNB-19 CNS it was 3.31 µM; in the test with HL-60(TB) leukemia it was 871 nM. The GI50 with UACC-62 melanoma was 1590 nM; in the test on NCI/ADR-RES ovarian, 3.33 µM; in the test with HT29 colon, 968 nM; in the test with LOX IMVI melanoma, 1300 nM. Also, the TGI in the test on SN12C renal is over 25 µM; in the test with T-47D breast it was over 25 µM; in the test on SF-268 CNS it was over 25 µM; in the test on SNB-19 CNS, over 25 µM; with HL-60(TB) leukemia, 6.35 µM; in the test with UACC-62 melanoma it was over 25 µM. The TGI with NCI/ADR-RES ovarian, with HT29 colon and in the test on LOX IMVI melanoma was over 25 µM each time.
`O=C(/C=C/C=C/c1ccccc1)c1ccco1`: the GI50 in the test on SN12C renal was 16000 nM; in the test on T-47D breast it was 7.5 µM; with SF-268 CNS it was 18200 nM; in the test on SR leukemia, 1860 nM; in the test with SNB-19 CNS it was 15.2 µM; with HL-60(TB) leukemia, 10000 nM. The GI50 with UACC-62 melanoma was 14600 nM; in the test with NCI/ADR-RES ovarian it was 16.4 µM; in the test with HT29 colon, 16700 nM; in the test on LOX IMVI melanoma, 13700 nM. Further, the TGI stood at 34.9 µM in the test with SN12C renal; 37.5 µM in the test with T-47D breast; 41.1 µM with SF-268 CNS; 11.2 µM in the test with SR leukemia; 31.9 µM with SNB-19 CNS; 97.6 µM with HL-60(TB) leukemia. Also, the TGI in the test on UACC-62 melanoma was 28.4 µM; with NCI/ADR-RES ovarian, 36.7 µM; with HT29 colon, 33.5 µM; in the test on LOX IMVI melanoma, 27.9 µM.
Take `O=C(O)/C(Cc1ccnc2ccccc12)=N\O`: the TGI with SN12C renal, in the test on T-47D breast, with SF-268 CNS, with SR leukemia, with SNB-19 CNS and in the test on HL-60(TB) leukemia was over 100 µM each time. The TGI in the test on UACC-62 melanoma, with NCI/ADR-RES ovarian, in the test with HT29 colon and in the test with LOX IMVI melanoma was over 100 µM throughout.
Turning to `CC(=O)N1CCN(CCNC(=O)n2cc(-c3ccncc3)c(-c3cc(O)cc(Cl)c3)n2)CC1`, the GI50 in the test with SN12C renal is 13700 nM; in the test on T-47D breast, 16.6 µM; in the test on SF-268 CNS, 14600 nM; with SR leukemia, 4780 nM; with SNB-19 CNS, 21.4 µM; in the test on HL-60(TB) leukemia it was 7790 nM. The GI50 is 2950 nM in the test with UACC-62 melanoma, 22.1 µM in the test on NCI/ADR-RES ovarian, 3280 nM with HT29 colon and 6850 nM with LOX IMVI melanoma. Besides, the TGI with SN12C renal came to 46.2 µM; in the test with T-47D breast, 49.2 µM; in the test with SF-268 CNS, 35.2 µM; in the test on SR leukemia, 22.5 µM; in the test with SNB-19 CNS, 78.6 µM; with HL-60(TB) leukemia, 29 µM. For the same compound, the TGI was 16.2 µM in the test on UACC-62 melanoma, over 100 µM in the test with NCI/ADR-RES ovarian, 11.9 µM with HT29 colon and 22.7 µM in the test with LOX IMVI melanoma.
As for `COc1cccc2cc(N(C)c3nc(C)nc4c3CCC4)ccc12`, the GI50 in the test with SN12C renal was under 10 nM; in the test with T-47D breast, 5.38 µM; in the test on SF-268 CNS it was under 10 nM; in the test on SR leukemia, under 10 nM; with SNB-19 CNS, under 0.01 µM; in the test with HL-60(TB) leukemia, under 10 nM. Also, the GI50 was under 0.01 µM in the test on NCI/ADR-RES ovarian, under 10 nM in the test on HT29 colon and under 10 nM in the test on LOX IMVI melanoma. Besides, the TGI in the test with SN12C renal came to 22.4 µM; in the test on T-47D breast it was 41.8 µM; in the test on SF-268 CNS, 15.6 µM; in the test on SR leukemia, 11.3 µM; with SNB-19 CNS it was 21.6 µM; in the test on HL-60(TB) leukemia, 0.0103 µM. Also, the TGI with UACC-62 melanoma came to 18.1 µM; in the test on NCI/ADR-RES ovarian, 16.1 µM; in the test with HT29 colon, 0.608 µM; in the test with LOX IMVI melanoma, 13.8 µM.
For `Cc1ccc([N+](=O)[O-])c2c(NCCNC(=O)c3cc(C(=O)NCCNc4ccnc5c(C)ccc([N+](=O)[O-])c45)n(C)n3)ccnc12`, the TGI in the test on SN12C renal is over 70.9 µM; with T-47D breast, over 100 µM; in the test on SF-268 CNS, over 100 µM; in the test on SR leukemia, over 82 µM; with SNB-19 CNS, over 100 µM; in the test with HL-60(TB) leukemia it was over 76.1 µM. For the same compound, the TGI with UACC-62 melanoma was over 83 µM; with NCI/ADR-RES ovarian, over 100 µM; with HT29 colon, over 100 µM; in the test with LOX IMVI melanoma it was over 64.7 µM.
Consider `CSc1nc2nc3c(nc2c(=O)n1C)C(=O)c1ccccc1C3=O`, for which the GI50 was 157 nM in the test with SN12C renal; 0.226 µM with T-47D breast; 294 nM in the test on SF-268 CNS; 332 nM in the test with SR leukemia; 0.304 µM with SNB-19 CNS; 209 nM in the test with HL-60(TB) leukemia. The GI50 is 46.7 nM in the test with UACC-62 melanoma, 0.253 µM in the test with NCI/ADR-RES ovarian, 253 nM with HT29 colon and 128 nM in the test on LOX IMVI melanoma. Moreover, the TGI with SN12C renal was 0.307 µM; in the test with T-47D breast it was 0.843 µM; in the test with SF-268 CNS, 1.09 µM; in the test on SR leukemia, over 100 µM; in the test on SNB-19 CNS, 1.28 µM; in the test with HL-60(TB) leukemia, 0.514 µM. In addition, the TGI in the test on UACC-62 melanoma came to 0.183 µM; in the test with NCI/ADR-RES ovarian, 0.938 µM; in the test with HT29 colon it was 0.637 µM; in the test on LOX IMVI melanoma, 0.315 µM.
For the compound `CN=C1C=CC(=C(c2ccc(N(C)C)cc2)c2ccc(N(C)C)cc2)C=C1`, the GI50 in the test on SN12C renal was 163 nM; in the test with T-47D breast it was 0.292 µM; with SF-268 CNS it was 250 nM; in the test on SR leukemia, 206 nM; with SNB-19 CNS, 0.324 µM; with HL-60(TB) leukemia it was 217 nM. For the same compound, the GI50 was 297 nM with UACC-62 melanoma, 1.5 µM in the test with NCI/ADR-RES ovarian, 105 nM with HT29 colon and 201 nM in the test on LOX IMVI melanoma. Further, the TGI in the test on SN12C renal stood at 3.04 µM; in the test on T-47D breast, 2.1 µM; in the test with SF-268 CNS, 1.54 µM; in the test on SR leukemia it was 0.551 µM; in the test on SNB-19 CNS, 1.94 µM; with HL-60(TB) leukemia it was 0.519 µM. In addition, the TGI with UACC-62 melanoma worked out at 1.39 µM; with NCI/ADR-RES ovarian, 4.83 µM; in the test on HT29 colon, 0.496 µM; with LOX IMVI melanoma it was 1.04 µM.
